The results in this text go back to a melting point compilation (Tetko et al.; mined from patent text by program, amines drawn as free bases though some values may be those of a salt).

Residues, ends and D or L forms follow the SMILES beside them. *: point of attachment. Bz = O=C(c1ccccc1)*

As usually defined, the melting point is the temperature, or range, at which the solid turns liquid. Take `COC(=O)C(Cc1ccc(O)cc1)NC(=O)C(Cc1ccccc1)NC(=O)c1ccccc1` (stereo not drawn) (Bz-Phe-Tyr-OMe; configuration not given here): the melting point lay in the range of 188 to 190 °C. To `N#CC1(c2ccccc2)CCCCC1` belongs 120 to 122 °C; to `COC(=O)c1nc2cccc(OC)c2c(O)c1C(=O)OC`, 184 to 186 °C; to `O=C(c1ccncc1)N1CCN(Cc2ccc3c(c2)Cc2c(-c4ccsc4)n[nH]c2-3)CC1`, 218 to 220 °C. In the case of `Cc1cc(O)n2nc(S(=O)(=O)Nc3c(Cl)cccc3Cl)nc2n1` it was 302 °C; in that of `OCC1=Cc2cc(Cl)ccc2Sc2sccc21`, 117 to 120 °C.

`CC(C)(COc1ccc(CNC(=O)C2Cc3ccccc3N2S(=O)(=O)c2ccc(-c3ccccc3C(F)(F)F)cc2)cc1)C(=O)O` (stereo not drawn) yielded a melting point of 98 to 105 °C. Turning to `Cc1nnc(-c2ccnc(NCc3cccnc3)c2)o1`, the melting point is 139 to 140 °C. In the case of `O=c1oc(-c2ccccc2)cc(O)c1SCc1cccc(OCCc2ccccc2)c1` it was 85 to 90 °C; in that of `Cc1c(C)n(CC2CC2C)c2c(OCc3ccc(F)cc3F)nncc12` (stereo not drawn), 101 to 102 °C; in that of `O=S1(=O)N=C(NCc2ccccc2)Nc2cc(Cl)sc21`, 223 to 226 °C. In turn, `CN1CCN(S(=O)(=O)c2cc(-c3csc(=Nc4ccccc4)n3C)ccc2Cl)CC1` showed a melting point of 156 to 158 °C. To `Cc1nnc2n1-c1ccc(NC(=O)NCCO)cc1C(c1ccccc1F)=NC2` belongs 228 to 230 °C. For the compound `COC(=O)C[C@H]1CC[C@H](n2nc(-c3c(-c4ccccc4)nn4ccccc34)ccc2=O)C1` (relative stereo), the melting point was in the range of 105 to 107 °C. To `CCOC(=O)c1cnc2c(cnn2-c2ccccc2)c1N(Cc1ccccc1)S(=O)(=O)c1ccc(OC)cc1` belongs 124 to 126 °C. To `CCCC1=C(C(=O)OCC)C(c2sccc2C)c2c[nH]nc2N1` (stereo not drawn) belongs 125 °C. In the case of `CCCCCn1cc(CCCC)n(Cc2ccc(-c3ccccc3-c3nnn[nH]3)nc2)c1=O` it was 162 to 164 °C. `CCc1[nH]n(C2CCCC2)c2nc(S(C)(=O)=O)nc(=O)c1-2` showed a melting point of more than 300 °C. In turn, `CS(=O)(=O)Cc1c(C(=O)O)ccc2c1OC(F)(F)O2` showed a melting point of 107 to 109 °C. In the case of `CC(=O)NC(=Cc1c[nH]c2cc(Cl)ccc12)C(=O)O`, the melting point worked out at 225 °C. To `NC(=S)c1ccc([N+](=O)[O-])cc1` belongs 165 to 167 °C. Take `Cc1cc(C)c(N2CCCc3c2nn(C)c3Br)c(Cl)c1`: the melting point fell in the range of 106 to 107 °C.

Compound `COC(=O)Cc1cc2c(cc1CC(=O)NCCc1cccc(OC)c1)OCO2` had a melting point of 81 to 83 °C. To `CC(=O)OCc1nc(-c2ccc3c(c2)OCO3)c2cc3c(cc2n1)OCO3` belongs 144 to 147 °C. In the case of `O=C(CC(=O)c1snc(Cl)c1Cl)c1ccc(O)cc1`, the melting point is 224 to 227 °C. Turning to `CC(C)C(NC(=O)OCc1cccnc1)C(=O)NC(Cc1ccccc1)C(O)C(O)C(Cc1ccccc1)NC(=O)C(NC(=O)OCc1cccnc1)C(C)C` (stereo not drawn), the melting point was 202 to 207 °C. In turn, `CCCCCCOc1c(OC)cc(N)c2ncccc12` had a melting point of 168 to 171 °C. Take `O=C(c1ccc(-c2ccccc2)cc1)N1Cc2ccc(C(=O)C(Cl)(Cl)Cl)n2Cc2ccccc21`: the melting point fell in the range of 197 to 198 °C. As for `O=C(Nc1ccc(F)cc1O)c1cc(Cl)c(O)c(Cl)c1`, the melting point lay within 223 to 224 °C. `CCCc1c(OCC(O)CSc2ccc(C(=O)CCC(=O)O)c(O)c2)ccc(C(C)=O)c1O` (stereo not drawn) showed a melting point of 150 °C. `O=C1CCCCC1Oc1ccc(-c2c(-c3ccccc3)nn3ccccc23)nn1` (stereo not drawn) showed a melting point of 214 to 216 °C. On to `Cc1ccc(S(=O)(=O)OCCC2(OC3CCCCO3)CC2)cc1` (stereo not drawn), for which the melting point was in the range of 56 to 57 °C. In the case of `FC(F)(F)Sc1ccc2c(c1)C(=C1CCN(CC3CC3)CC1)c1ccccc1C=C2` it was 143 to 144 °C. As to `CCOC(=O)C=Cc1ccc(OCc2ccccn2)cc1`, the melting point came out at 95 °C. In the case of `CCn1c(=O)c2c(nc(/C=C/c3cc(OC)ccc3OC(=O)c3ccccc3)n2C)n(CC)c1=O` it was 254 to 255 °C; in that of `CNC(=O)/C=C/c1ccc(C(=O)NCC(=O)N(C)c2ccc(Cl)c(COc3cccc4ccc(C)nc34)c2Cl)cc1`, 143 to 150 °C; in that of `NC(=O)c1sc2nccc(N3CCCN(c4cccc([N+](=O)[O-])c4)CC3)c2c1N`, 180 to 185 °C.

For the compound `O=C(CC1CCCC1)NC[C@H]1CN(c2ccc3c(c2)CCCc2cnoc2-3)C(=O)O1`, the melting point is 193 to 195 °C. To `O=C(c1ccc(Cl)cc1)c1nccs1` belongs 101 to 103 °C. On to `O=C(CCc1ccc(OCc2ccccc2)cc1)c1ncc(-c2ccccn2)o1`, for which the melting point lay within 99 to 100 °C. In the case of `CC1(C)CCC(C)(C)c2cc(C(N)C(=O)Nc3ccc(C(=O)O)c(O)c3)ccc21` (stereo not drawn) it was 240 to 241 °C. To `CN(C)CC1CNc2ccc(Cl)cc2C1` (stereo not drawn) belongs 94 to 96 °C; to `COC[C@H](C1CC1)n1cc(Cl)nc(Nc2cc(C)c(OC)nc2C)c1=O`, 99 to 100 °C.

With `Nc1c(F)c(N2CCNCC2)cc2c1c(=O)c(C(=O)O)cn2C1COC1`, the melting point was 244 to 246 °C. In the case of `Oc1ccc2c(c1)COc1c-2cc2ccc(O)cc2c1-c1ccco1`, the melting point was in the range of 158 to 163 °C. `CCC(C(=O)C(C)C(O)C(C)CCc1c(N=Nc2ccccc2)cc(C)c(O)c1C(=O)O)C1OC(CC)(C2CCC(O)(CC)C(C)O2)CC1C` (stereo not drawn) showed a melting point of 212 to 215 °C. As to `CC(C)(CNC=O)c1ccc2nc(-c3c[nH]cn3)[nH]c2c1`, the melting point fell in the range of 240 to 246 °C. In the case of `CCNc1ncnc2nc(-c3ccncc3)[nH]c12`, the melting point was in the range of 308 to 310 °C.

In turn, `CCCCCCc1ccc(NC2=NCCS2)cc1` displayed a melting point of 77 to 79 °C. To `COC(=O)C=CC=CCSc1ccc(Cl)cc1` belongs 75 to 77 °C; to `CCCCCCCCCCCCCCOc1ccc(CN(C(=O)NC)c2cccc(CBr)c2)cc1`, 70 to 73 °C; to `CC1Sc2c(C(=O)O)c(=O)c3cc(F)c(N4CCN(C)CC4)c(F)c3n21` (stereo not drawn), 238 °C. The compound `FC(F)(F)c1ccc(Oc2ccc3nonc3c2)cc1` had a melting point of 77 to 78 °C. To `CCN1c2ncc(CCc3cnc4ccccc4c3)cc2C(=O)N(C)c2ccc(F)nc21` belongs 154 to 156 °C; to `O=C(Nc1cc(=O)n(-c2c(Cl)cc(C(F)(F)F)cc2Cl)[nH]1)c1ccccc1`, 288 °C; to `Cc1cc(S(=O)(=O)N2c3cc(F)ccc3-n3cccc3C2C)ccc1O` (stereo not drawn), 191 to 193 °C. With `Cc1cc(-n2ccnc2)c2cccc(OCc3c(Cl)ccc(S(=O)(=O)N4CCCC4)c3Cl)c2n1`, the melting point was found to be 193 °C. Compound `COc1ccc(Cn2c(=O)c(=NNc3ccccc3)c(=O)n(CC34CC5CC(CC(C5)C3)C4)c3ccccc32)cc1` registered a melting point of 170 to 188 °C. To `CCCCc1nn(-c2cc([N+](=O)[O-])ccc2Cl)c(C(=O)OCC)c1Cc1ccc(-c2ccccc2S(=O)(=O)NC(=O)c2ccccc2Cl)cc1` belongs more than 60 °C; to `Cc1cc(C)n(CC2CC3c4cccc5[nH]cc(c45)CC3N(C)C2)n1` (stereo not drawn), 187 to 190 °C; to `CCCc1c(C(=O)N(C)Cc2ccc3c(Br)c(O)ccc3c2)cnn1-c1ccccc1`, 205 to 207 °C.

Turning to `COC(=O)Cc1ccc(CNC(=O)C2Cc3c(OC)cccc3N2S(=O)(=O)c2ccc(-c3cccc(C(F)(F)F)c3)cc2)cc1` (stereo not drawn), the melting point was 80 °C. Consider `Cc1ccc(C2c3c(C)c(N4Cc5cc(Cl)c(Cl)cc5C4)c(C)c(C)c3OC2(C)C)cc1` (stereo not drawn), for which the melting point fell in the range of 201 to 203 °C. In the case of `Cc1cccc(C(=O)C(=C2SCS2)c2ccncc2)c1` it was 179 °C.

In the case of `CNCC1Cc2cc(F)cc(-c3cc(Cl)ccc3Cl)c2O1` (stereo not drawn), the melting point was in the range of 118 to 120 °C. For the compound `COC(=O)[C@@H]1Cc2cc(Cl)c(Cl)cc2[C@@H](NC(N)=O)C1` (relative stereo), the melting point fell in the range of 227 to 229 °C. Turning to `CC(C)c1nc(CN(C)C(=O)N[C@H](C(=O)O)C(C)C)cs1`, the melting point lay within 82.8 to 93.8 °C. As for `O=C(CN1CCC(Cc2ccccc2)CC1)Nc1ccc2[nH]c(=S)oc2c1`, the melting point is 183 to 184 °C. In the case of `CCCN1C(=O)N2C(=NCC2c2ccccc2)c2c1ncn2C` (stereo not drawn) it was 152 to 154 °C; in that of `CN1CCC(c2ccc(Nc3cc(-c4cccc(-n5ncc6cc(C(C)(C)C)cc(F)c6c5=O)c4CO)nn(C)c3=O)nn2)CC1`, 260 to 265 °C. For the compound `O=C1C(=O)c2ccc(Cl)cc2C2=C1SCC1(CCN(C(=O)c3cccc(Cl)c3)CC1)O2`, the melting point is 125 to 130 °C.

`CC12CCC3C(=C1CCC2=O)C=CC1=CC(=O)CCC13CO` (stereo not drawn) gave a melting point of 264 to 265 °C. Consider `CNC(=S)N(CCN1CCC(Nc2nc3ccccc3n2Cc2ccc(F)cc2)CC1)c1nccs1`, for which the melting point was 188 °C. In the case of `O=C(c1ccsc1)c1cccc2ccccc12`, the melting point turned out to be 50 °C.

Take `O=c1c(C2CCCC2)coc2cc(O)cc(Cl)c12`: the melting point is 282 to 284 °C. To `NNc1ccc(OCc2ccccc2)cc1` belongs 101 to 103 °C; to `CCCC1=C(C#N)C(c2cccc([N+](=O)[O-])c2Cl)c2c[nH]nc2N1` (stereo not drawn), 234 to 235 °C; to `CN1C(=O)Cn2c(C(=O)N3CCOCC3)nnc2-c2cc(Cl)ccc21`, 200 to 201 °C. `O=[N+]([O-])c1ccc(N2CCC2)nc1` showed a melting point of 132 to 134 °C. Turning to `CCCCCC(O)C1C(=O)NC2(C(O)C3C=CCCC3)C(=O)OC12C` (stereo not drawn), the melting point was determined as 144 °C. To `CCN(CC)CCNC(=O)c1c(I)ccc2cc3ccccc3nc12` belongs 81 to 83 °C.

`O=C1CC[C@@H](C(=O)N[C@@H](Cc2c[nH]cn2)C(=O)N[C@@H](Cc2c[nH]c3ccccc23)C(=O)OCc2ccccc2)N1` came in with a melting point of 250 to 252 °C. Turning to `CC[C@H](Cn1cnnn1)n1cnc2cc3c(=O)n([C@H](C)Cn4ncnn4)nnc3cc2c1=O`, the melting point was in the range of 198 to 200 °C.
